Source: patent publication US11679107B2 (Eisai R&D Management Co., Ltd., priority 2018, dated 2023)
Like-named read-outs stand apart in the source and are kept apart here.

Legend:
SF3b complexes = biological target: T1, SF3b complexes (Homo sapiens, UniProt O75533+Q7RTV0); test: Scintillation proximity assay (SPA) with [3H]-labelled pladienolide probe; assay type: binding; details: SF3B1 (WT); geometric mean; read-out: SPA-ATS GMean IC50 (nM) SF3B1 (WT)
T1 construct: endogenous in cells; host or cells: Nuclear extracts; A HeLa S3 extract preparation is described for the in vitro splicing assay
Summary of the method: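 SF3b complexes captured from nuclear extracts on anti-SF3B1 antibody SPA beads; test compounds pre-incubated 30 min before 2.5 nM [3H]-pladienolide probe added, then 30 min incubation. Bound probe read by scintillation; values from non-linear regression of concentration–response curves.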

[1] = test system: Ad2 variant pre-mRNAs spliced in HeLa S3 nuclear extracts; test: In vitro splicing assay (IVS), RT-qPCR of spliced product; assay type: biochemical; details: for IC50: geometric mean; for Ratio Ad2.1/2.2: ratio of IVS IC50 Ad2.1 to Ad2.2
Summary of the method: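 Read-out is one-step TaqMan RT-qPCR of spliced Ad2 mRNA with Ftz as reference, normalized to DMSO and fit by non-linear regression. Reactions held HeLa S3 nuclear extract, 2 ng Ad2-derived pre-mRNA and test compound, with 15 min preincubation. Splicing was started with ATP-containing activation buffer and run 90 min at 30 °C.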

[2] = test system: NCI-H1568 cells (high MCL1); test: Cell proliferation and viability, CellTiter-Glo, 72 hours; assay type: cell-based; details: for GI50: geometric mean
Summary of the method: (§1)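 RPMI-1640/10% FBS (Panc: + insulin, FBS 15%); 11-pt half-log dose, ~10 μM-100 pM, 0.1% DMSO; 37° C, 5% CO2; ATP luminescence read; % inhibition vs T0 and vehicle, −100% cidal to 100% uninhibited growth.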

[3] = test system: Panc 05.04 cells (SF3b K700E mutant); test: as above; assay type: cell-based; details: for GI50: geometric mean
Summary of the method: as §1

[4] = Ad2.1 pre-mRNA substrate, read-out: qPCR-IVS-ATS GMean IC50 (nM) Ad2.1
[5] = Ad2.2 pre-mRNA substrate, read-out: qPCR-IVS-ATS GMean IC50 (nM) Ad2.2
[6] = 72 h, NCIH1568.1, -100% = cidal, 0% = static, 100% = uninhibited growth
[7] = NCI-H1568, 72 h, read-out: CTGlo-ATS GMean GI50 (nM) 72 h NCIH1568.1, 72 h, NCIH1568.1
[8] = 72 h, PANC0504.1, -100% = cidal, 0% = static, 100% = uninhibited growth
[9] = Panc 05.04, 72 h, read-out: CTGlo-ATS GMean GI50 (nM) 72 h PANC0504.1, 72 h, PANC0504.1
[10] = NCI-H1568, read-out: CTGlo-ATS GMean GI50 (nM) 72 h NCIH1568.1, 72 h, NCIH1568.1
[11] = Panc 05.04, read-out: CTGlo-ATS GMean GI50 (nM) 72 h PANC0504.1, 72 h, PANC0504.1
[12] = NCI-H1568, read-out: CTGlo-ATS GMean GI50 (nM) 72 h NCIH1568.1, NCIH1568.1 cells, 72 h
[13] = NCIH1568.1 cells, 72 h, −100% cidal, 0% static, 100% maximal growth
[14] = PANC0504.1 cells, 72 h, −100% cidal, 0% static, 100% maximal growth
[15] = Panc 05.04, read-out: CTGlo-ATS GMean GI50 (nM) 72 h PANC0504.1, PANC0504.1 cells, 72 h

Row | SMILES | IC50 (SF3b complexes) [nM] | IC50 [1, 4] [nM] | IC50 [1, 5] [nM] | Ratio Ad2.1/2.2 [1] | CTGlo-ATS Mean MinResponse % 72 h NCIH1568.1 [2, 6] [%] | GI50 [2, 7] [nM] | CTGlo-ATS Mean MinResponse % 72 h PANC0504.1 [3, 8] [%] | GI50 [3, 9] [nM] | GI50 [2, 10] [nM] | GI50 [3, 11] [nM] | GI50 [2, 12] [nM] | CTGlo-ATS Mean MinResponse % 72 h NCIH1568.1 [2, 13] [%] | CTGlo-ATS Mean MinResponse % 72 h PANC0504.1 [3, 14] [%] | GI50 [3, 15] [nM] | GI50 ([2]; NCI-H1568, 72 h, read-out: CTGlo-ATS GMean GI50 (nM) 72 h NCIH1568.1, NCIH1568.1 cells, 72 h) [nM] | GI50 ([3]; Panc 05.04, 72 h, read-out: CTGlo-ATS GMean GI50 (nM) 72 h PANC0504.1, PANC0504.1 cells, 72 h) [nM]
1 | CCNS(=O)(=O)c1cccc(/C=C(\C)[C@H]2OC(=O)CC(O)CCC(C)[C@@H](OC(=O)N3CCN(C)CC3)/C=C/[C@@H]2C)c1 (stereo in doubt) [Compound 210, [(2S,3S,4E,6R,7R,10S)-2-[(E)-1-[3-(ethylsulfamoyl)phenyl]prop-1-en-2-yl]-10-hydroxy-3,7-dimethyl-12-oxo-1-oxacyclododec-4-en-6-yl] 4-methylpiperazine-1-carboxylate] | 4.35 | 11000 | 32.7 | 336.112 | −51.154 | 17 | −96.896 | 27.8 |  |  |  |  |  |  |  | 
2 | C/C(=C\c1cc(F)cc(S(=O)(=O)N2CCCC2)c1)[C@H]1OC(=O)C[C@H](O)CC[C@H](C)[C@@H](OC(=O)N2CCN(C)CC2)/C=C/[C@@H]1C [Compound 197, [(2S,3S,4E,6R,7S,10R)-2-[(E)-1-(3-fluoro-5-pyrrolidin-1-ylsulfonylphenyl)prop-1-en-2-yl]-10-hydroxy-3,7-dimethyl-12-oxo-1-oxacyclododec-4-en-6-yl] 4-methylpiperazine-1-carboxylate] | 2.67 | 98.5 | 22.8 | 4.318 | −69.290 | 4.69 | −91.100 | 3.53 |  |  |  |  |  |  |  | 
3 | C/C(=C\c1cncc(S(=O)(=O)N2CCCC2)c1)[C@H]1OC(=O)C[C@H](O)CC[C@H](C)[C@@H](OC(=O)N2CCN(C)CC2)/C=C/[C@@H]1C [Compound 205, [(2S,3S,4E,6R,7S,10R)-10-hydroxy-3,7-dimethyl-12-oxo-2-[(E)-1-(5-pyrrolidin-1-ylsulfonylpyridin-3-yl)prop-1-en-2-yl]-1-oxacyclododec-4-en-6-yl] 4-methylpiperazine-1-carboxylate] | 16.2 | > 25000 | 108 | 232.132 | −28.455 |  | −91.576 |  | 85.9 | 70.8 |  |  |  |  |  | 
4 | C/C(=C\c1ccc(S(=O)(=O)NC2CCCC2)cc1F)[C@H]1OC(=O)C[C@H](O)CC[C@H](C)[C@@H](OC(=O)N2CCN(C)CC2)/C=C/[C@@H]1C [Compound 57] | 9.16 | > 25000 | 228 |  |  |  |  |  |  |  | 41.3 | −47.783 | −71.380 | 49.7 |  | 
5 | C/C(=C\c1cc(F)cc(N2CCOCC2)c1)[C@H]1OC(=O)C[C@H](O)CC[C@@](C)(O)[C@@H](OC(=O)N2CCC(N3CCCCC3)CC2)/C=C/[C@@H]1C [Compound 62] | 7.86 | 587 | 52.9 |  |  |  |  |  |  |  | 54.9 | −57.446 | −94.536 | 40.5 |  | 
6 | C/C(=C\c1cccc(S(=O)(=O)NC(C)(C)C)c1)[C@H]1OC(=O)C[C@H](O)CC[C@H](C)[C@@H](OC(=O)N2CCN(C)CC2)/C=C/[C@@H]1C [Compound 208, [(2S,3S,4E,6R,7S,10R)-2-[(E)-1-[3-(tert-butylsulfamoyl)phenyl]prop-1-en-2-yl]-10-hydroxy-3,7-dimethyl-12-oxo-1-oxacyclododec-4-en-6-yl] 4-methylpiperazine-1-carboxylate] | 1.77 | 1380 | 25.1 | 54.813 | −47.371 |  | −94.342 |  | 11.6 | 9.27 |  |  |  |  |  | 
7 | C/C(=C\c1cc(F)cc(N2CCN(C(=O)c3cnco3)CC2)c1)[C@H]1OC(=O)C[C@H](O)CC[C@H](C)[C@@H](OC(=O)N2CCN(C)CC2)/C=C/[C@@H]1C [Compound 123] | 1.7 | 16.5 | 13.1 |  |  |  |  |  |  |  | 2.26 | −86.056 | −71.328 | 2.75 |  | 
8 | CC(=O)N1CCC(n2nnc3c(F)cc(/C=C(\C)[C@H]4OC(=O)C[C@H](O)CC[C@H](C)[C@@H](OC(=O)N5CCN(C)CC5)/C=C/[C@@H]4C)cc32)CC1 [Compound 160] | 1.65 | 4.68 | 4.69 |  |  |  |  |  |  |  | 0.896 | −86.403 | −82.399 | 1.15 |  | 
9 | CN[C@@H]1CCN(c2cccc(/C=C(\C)[C@H]3OC(=O)C[C@H](O)CC[C@H](C)[C@@H](OC(=O)N4CCN(C)CC4)/C=C/[C@@H]3C)c2)C1 [Compound 9] | 14.9 | 107 | 27 |  |  |  |  |  |  |  | 116 | −83.308 | −87.085 | 63.9 |  | 
10 | C/C(=C\c1cccc(N2CCCS2(=O)=O)c1)[C@H]1OC(=O)C[C@H](O)CC[C@H](C)[C@@H](OC(=O)N2CCN(C)CC2)/C=C/[C@@H]1C [Compound 49] | 3.04 | 16300 | 28.3 |  |  |  |  |  |  |  |  | −35.275 | −93.022 |  | 11.7 | 9.02
11 | C/C(=C\c1cc(F)cc(N2CCOC[C@@H]2CO)c1)[C@H]1OC(=O)C[C@H](O)CC[C@H](C)[C@@H](OC(=O)N2CCN(C)CC2)/C=C/[C@@H]1C [Compound 77] | 1.78 | 16.1 | 13.3 |  |  |  |  |  |  |  | 1.79 | −82.189 | −86.524 | 3.9 |  | 
12 | C/C(=C\c1cccc(N2CCNCC2)c1)[C@H]1OC(=O)C[C@H](O)CC[C@H](C)[C@@H](OC(=O)N2CCN(C)CC2)/C=C/[C@@H]1C [Compound 1] | 19.8 | 28.9 | 18.7 |  |  |  |  |  |  |  | 61.2 | −71.582 | −79.550 | 54.8 |  | 
13 | C/C(=C\c1cc(F)cc(N2CCN(CC(F)(F)F)CC2)c1)[C@H]1OC(=O)C[C@H](O)CC[C@H](C)[C@@H](OC(=O)N2CCN(C)CC2)/C=C/[C@@H]1C [Compound 107] | 8.76 | 190 | 25.4 |  |  |  |  |  |  |  | 7.27 | −87.564 | −83.679 | 8.46 |  | 
14 | C/C(=C\c1ccc(C)c2[nH]ncc12)[C@H]1OC(=O)C[C@H](O)CC[C@H](C)[C@@H](OC(=O)N2CCN(C)CC2)/C=C/[C@@H]1C [Compound 89, [(2S,3S,4E,6R,7S,10R)-10-hydroxy-3,7-dimethyl-2-[(E)-1-(7-methyl-1H-indazol-4-yl)prop-1-en-2-yl]-12-oxo-1-oxacyclododec-4-en-6-yl] 4-methylpiperazine-1-carboxylate] | 3.25 | 24700 | 95.4 |  |  |  |  |  |  |  | 219 | −22.815 | −16.694 | 109 |  | 
15 | C/C(=C\c1cc(F)cc(N2CCOCC2)c1)[C@H]1OC(=O)C[C@H](O)CC[C@H](C)[C@@H](OC(=O)N2CCN(C3CCCC3)CC2)/C=C/[C@@H]1C [Compound 27] | 10.5 | 39.9 | 42.3 |  |  |  |  |  |  |  | 12.3 | −71.773 | −84.822 | 11.9 |  | 
